In PMC11085308, “Design, Synthesis and Biological Activity of Novel Methoxy- and Hydroxy-Substituted N-Benzimidazole-Derived Carboxamides” (Molecules, 2024):
Converted amounts (≈) assume the structure as drawn. “Also recorded” adds a separate entry of the source.

Key:
E. coli efflux del. = test: microbe, parasite or virus in culture; format: cell-based, Escherichia coli; conditions: for MIC E. coli efflux del.: broth microdilution, 16–24 h at 37 °C, unit inferred
Method: (§1) The in vitro antibacterial activity of the synthesized benzamides 7–12 and 31–37 was evaluated against a panel of eight different bacterial strains. The Gram-positive bacterial strains comprised S. aureus, S. pneumoniae and E. faecalis, and the panel of Gram-negative bacteria consisted of E. coli, K. pneumoniae, A. baumannii and P. aeruginosa.
(§2) The selected bacterial strains were Gram-negative Escherichia coli (ATCC 25922) and Gram-positive Staphylococcus aureus (ATCC 29213) and S. Pneumoniae (ATCC 49619). The Saccharomyces cerevisiae ATCC 7752 strain was tested as a eukaryotic model organism. Synthesized compounds were prepared as 10 mM DMSO solutions and tested in a final concentration range of 100–0.2 µM [39].
(§3) Broth microdilution testing was performed according to CLSI (Clinical Laboratory Standards Institute) guidelines. The MIC (minimal inhibitory concentration) value was defined as the last tested concentration of a compound at which there is no visible growth of bacteria. Inoculums for each microorganism were prepared using the direct colony suspension method, where broth solutions that achieved turbidity equivalent to 0.5 McFarland standards were additionally diluted 100× with cation-adjusted MH media (Becton Dickinson). All test plates were incubated for 16–24 h at 37 °C.

E. faecalis ATCC 29212 = test: Antibacterial activity in vitro, broth microdilution MIC; format: cell-based; conditions: for Selectivity of antibacterial activity, in words: against the Gram-positive strain E. faecalis; for MIC E. faecalis ATCC 29212: broth microdilution, 16–24 h at 37 °C, unit inferred
Method: as §1, §2, §3

A. baumannii ATCC 17978 = test: as above; format: cell-based; conditions: 16–24 h at 37 °C, unit inferred
Method: as §1, §2, §3

P. aeruginosa ATCC 27853 = test: as above; format: cell-based; conditions: 16–24 h at 37 °C, unit inferred
Method: as §1, §2, §3

[1] = ABTS radical scavenging assay; conditions: for IC50: head prints 'mM (* µM)', no cell carries an asterisk
Text: (§4) The synthesized benzazole acrylonitrile derivatives were screened for their antioxidative potency by using in vitro assays, namely DPPH and ABTS as free radical scavenging assays and FRAP as a ferric reducing/antioxidant power assay.
(§5) The well-known antioxidant butylated hydroxytoluene (BHT) was used as a standard for comparing activity during testing. The DPPH assay is a standard commonly used test for the in vitro assessment of the antioxidant capacity of novel compounds by using their ability to scavenge the stable radical 1,1-diphenyl-picrylhydrazyl. […] Another test used to evaluate the antioxidative capacity of novel compounds was the ABTS test, by which their activity was evaluated by scavenging the stable radical 3-ethylbenzthiazoline-6-sulphonic acid.
The total antioxidant activity (TEAC) method was adapted for use with a microplate reader. […] On the day of analysis, the ABTS•+ solution was diluted with PBS (pH7.4) to attain an absorbance of 0.700 ± 0.01 at 734 nm. This radical state remained stable for over two days when stored in the dark at room temperature. The standards and solutions of the tested compounds (10 µL) were mixed with the working ABTS•+ solution (200 µL) in microplate wells and incubated at room temperature for 5 min. The reduction in absorbance at 734 nm was measured using a µQuant (Biotec Inc., Auburn, CA, USA) microplate reader. The percentage scavenging of the test samples at each concentration was calculated using the following formula:[(Abscontrol − Abscompound)/Abscontrol] × 100
The IC50 values for each compound were calculated from dose–response curves. All measurements where carried out in triplicate with a linear regression analysis.

[2] = Ferric reducing/antioxidant power (FRAP assay); set-up: FRAP: unit not given here; conditions: for FRAP: Fe2+ equivalents, triplicate; for FRAP ferric reducing/antioxidant power, in words: compared to the standard BHT
Method: as §4
The antioxidant activity of a substance is directly related to its reducing power.
The FRAP method was carried out according to previously described procedures with some modifications to make it compatible with an assay on a 96-well microplate. All results were expressed as Fe^2+ equivalents (Fe^2+ µmol). Ferrous sulphate (FeSO4 × 7H2O) was used to develop a standard curve of 20–2000 µmol/l for the FRAP test.

E. coli ATCC 25922 = test: Antibacterial activity in vitro, broth microdilution MIC; format: cell-based, Escherichia coli; conditions: 16–24 h at 37 °C, unit inferred
Method: as §1, §2, §3

[3] = tested on: HEK 293 (human embryonic kidney); test: Antiproliferative activity in vitro, MTT assay, 72 h, non-cancerous cell line; format: cell-based; conditions: HEK293, 72 h incubation, '-' with footnote a = did not show biological activity due to precipitation
Method: (§6) The experiments were carried out on four human cell lines which are derived from three cancer types: H460 (lung carcinoma), HCT 116 (colorectal carcinoma), MCF-7 (human breast cancer) and the non-cancerous cell line HEK 293 (human embryonic kidney).
(§7) The results are compared with the known antiproliferative agents doxorubicin and etoposide. […] Therefore, it is not clear whether the observed antiproliferative activity is due to the biological activity of the compounds or to precipitation.
(§8) The experiments were performed on four human cell lines, including HCT 116 (colon carcinoma), H 460 (lung carcinoma), MCF-7 (breast carcinoma) and HEK 293 (human embryonic kidney cells), in line with previously published experimental procedures. Briefly, the cells were grown in DMEM medium with the addition of 10% fetal bovine serum (FBS), 2 mM of L-glutamine, 100 U/mL of penicillin and 100 µg/mL of streptomycin and cultured as monolayers at 37 °C in a humidified atmosphere with 5% CO2. Cells were seeded at 2 × 10^3 cells/well in standard 96-well microtiter plates and left to attach for 24 h. The next day, a test compound was added in five serial 10-fold dilutions. The rate of cell growth was evaluated after 72 h of incubation with MTT assays. […] Each test was performed in quadruplicate in at least two individual experiments.

[4] = tested on: HCT 116 (colorectal carcinoma); test: Antiproliferative activity in vitro, MTT assay, 72 h; format: cell-based; conditions: Homo sapiens, 72 h incubation, '-' with footnote a = did not show biological activity due to precipitation
Method: as §6, §7, §8

H460 (lung carcinoma) = test: as above; format: cell-based; conditions: Homo sapiens, NCI-H460, 72 h incubation
Method: as §6, §7, §8

[5] = tested on: MCF-7 (human breast cancer); test: as above; format: cell-based; conditions: MCF7, 72 h incubation
Method: as §6, §7, §8

S. aureus ATCC 29213 = test: Antibacterial activity in vitro, broth microdilution MIC; format: cell-based, Staphylococcus aureus; conditions: for MIC S. aureus ATCC 29213: broth microdilution, 16–24 h at 37 °C, unit inferred
Method: as §1, §2, §3

[6] = DPPH free radical scavenging assay; conditions: compared to the standard BHT
Text: as §4, §5
Determination of the reducing activity of the stable radical 1,1-diphenyl-picrylhydrazyl (DPPH):
The reducing activity of the investigated systems was measured by the DPPH method according to previously described procedures with modifications to ensure their use on a 96-well microplate. Briefly, equal volumes of various concentrations of the tested molecules (dissolved in DMSO) were added to a solution of DPPH (final concentration of 50 µM in absolute ethanol). Ethanol and DMSO were used as control solutions in line with earlier reports. The radical scavenging activity was calculated using the following formula:[(A517 control − A517 compound)/A517 control] × 100.
The IC50 values were calculated from dose–response curves using nonlinear regression analysis with the GraphPad Prism 8 Ink. program. All measurements were carried out in triplicate.

| Structure (SMILES) | MIC E. coli efflux del. (E. coli efflux del.) | melting point | Selectivity of antibacterial activity, in words (E. faecalis ATCC 29212) | MIC E. faecalis ATCC 29212 (E. faecalis ATCC 29212) | MIC A. baumannii ATCC 17978 (A. baumannii ATCC 17978) | MIC P. aeruginosa ATCC 27853 (P. aeruginosa ATCC 27853) | IC50 [1] | FRAP [2] | MIC E. coli ATCC 25922 (E. coli ATCC 25922) | IC50 [3] | IC50 [4] | IC50 (H460 (lung carcinoma)) | IC50 [5] | MIC S. aureus ATCC 29213 (S. aureus ATCC 29213) | MIC (E. coli efflux del.; Escherichia coli, read-out: MIC E. coli efflux del.) | MIC (E. faecalis ATCC 29212; Enterococcus faecalis, ATCC29212, read-out: MIC E. faecalis) | ABTS antioxidative activity, in words ([1]; in comparison to the standard BHT) | FRAP ferric reducing/antioxidant power, in words [2] | MIC (S. aureus ATCC 29213; Staphylococcus aureus, ATCC29213, read-out: MIC S. aureus) | DPPH free radical scavenging activity, in words [6] |
| --- | --- | --- | --- | --- | --- | --- | --- | --- | --- | --- | --- | --- | --- | --- | --- | --- | --- | --- | --- | --- |
| Cn1c(NC(=O)c2ccc(O)cc2O)nc2cc(C#N)ccc21 [Compound 35, N-(5-cyano-1-methyl-1H-benzo[d]imidazol-2-yl)-2,4-dihydroxybenzamide] | 64 µM (≈ 19.7 µg/mL) | 273 to 275 °C | selective antibacterial activity | 16 µM (≈ 4.93 µg/mL) | > 64 µM | > 64 µM | 0.19 ± 0.04 mM | 278.61 ± 3.28 | > 64 µM | 33.5 ± 6.5 µM | 10 ± 1.6 µM | > 100 µM | 8.7 ± 1.5 µM | > 64 µM | – | – | – | – | – | – |
| CCCCCCn1c(NC(=O)c2cc(O)c(O)c(O)c2)nc2cc(C#N)ccc21 [Compound 37, N-(5-cyano-1-hexyl-1H-benzo[d]imidazol-2-yl)-3,4,5-trihydroxybenzamide] | 16 µM (≈ 6.31 µg/mL) | 290 to 294 °C | selective antibacterial activity | 16 µM (≈ 6.31 µg/mL) | > 64 µM | > 64 µM | 0.002 ± 0.0001 mM | 2780.81 ± 15.12 | > 64 µM | 37.9 ± 0.4 µM | 37.8 ± 6 µM | 47 ± 8.7 µM | 38.2 ± 3.2 µM | 16 µM (≈ 6.31 µg/mL) | 16 µM (≈ 6.31 µg/mL) | 16 µM (≈ 6.31 µg/mL) | pronounced antioxidative activity | excellent in vitro antioxidant activity | 16 µM (≈ 6.31 µg/mL) | significantly improved |
| Cc1cc(C(C)(C)C)c(O)c(C(C)(C)C)c1 [BHT, butylated hydroxytoluene, reference compound] | – | – | – | – | – | – | 0.02312 ± 0.00012 mM | – | – | – | – | – | – | – | – | – | – | – | – | – |
| O=C(Nc1nc2ccccc2n1-c1ccccc1)c1cc(O)c(O)c(O)c1 [Compound 34, 3,4,5-Trihydroxy-N-(1-phenyl-1H-benzo[d]imidazol-2-yl)benzamide] | > 64 µM | 278 to 281 °C | selective antibacterial activity | 32 µM (≈ 11.6 µg/mL) | > 64 µM | > 64 µM | – | 6.83 ± 1.26 | > 64 µM | 85.1 ± 8.8 µM | > 100 µM | > 100 µM | 49.4 ± 27.3 µM | > 64 µM | – | – | – | very low | – | significantly improved; also recorded: exceptional activity |
| O=C(Nc1nc2ccccc2[nH]1)c1ccc(O)cc1O [Compound 31, N-(1H-benzo[d]imidazol-2-yl)-2,4-dihydroxybenzamide] | 64 µM (≈ 17.2 µg/mL) | 212 to 214 °C | selective antibacterial activity | 32 µM (≈ 8.62 µg/mL) | > 64 µM | > 64 µM | 0.13 ± 0.006 mM | 89.29 ± 21.92 | > 64 µM | 24.5 ± 6.4 µM | 38.6 ± 15.6 µM | > 100 µM | 35.1 ± 6.9 µM | > 64 µM | – | – | – | – | – | – |
